# Values of other authors as cited in US6359007B1 (ChronoRX, LLC, priority 1999, dated 2002).
# Where two headings read alike, the source gives them in different places.
# Legend:
# [1] = in vivo
# [2] = stomach in the "fed" state
# [3] = per meal, curvilinear falloff
# [4] = not given; remark: listed apart in the source
smiles,measurement,setting,value
"O=C1O[C@H]([C@@H](O)CO)C(O)=C1O [AA, ascorbic acid]",mean steady state plasma concentration,daily oral dose 200 mg,12 mg/L
same,mean steady state plasma concentration,daily oral dose 2500 mg,15 mg/L
"[Cu+2] [Cu^+2, Copper]",Absorption (via carrier-mediated transport),[1],30-40%
same,absorption of ingested Cu^+2,[1],30-40%
N=C(N)NCCC[C@H](N)C(=O)O [L-arginine],gastrointestinal uptake of dietary arginine,[2],about 38%
"[Mg+2] [Mg^+2, Magnesium]",maximum bolus absorption,[3],8 meq
"[Zn+2] [Zn^+2, Zinc]",increase of mean plasma Zn^+2 above pre-load levels,[4]; 11-fold increase in Zn^+2 intake,About 37%
same,Zn^+2 absorption,[4]; in vivo,40% to 86
same,ingested Zn^+2 entering the plasma,[4]; in vivo,About 37%
same,time by which gastrointestinal absorption is essentially complete,[4]; in vivo,≤ 4 h
